Here are results for 20 compounds from ChEMBL document CHEMBL4145454, “Discovery of 2,4-diarylaminopyrimidines bearing a resorcinol motif as novel ALK inhibitors to overcome the G1202R resistant mutation” (Eur J Med Chem, 2018).

The target of assay [1] is T1, ALK tyrosine kinase receptor (Homo sapiens, UniProt Q9UM73). The following applies: 20 to 200 nM.
Description: Inhibition of ALK phosphorylation at Y1278 residue in human SU-DHL1 cells at 20 to 200 nM after 1 hr by Western blot analysis
Assay [2] concerns the target T1, ALK tyrosine kinase receptor. The following applies: 20 to 200 nM. The source holds these as a separate data set.
Description: Inhibition of ALK in human SU-DHL1 cells assessed as reduction in STAT3 phosphorylation at Y705 residue at 20 to 200 nM after 1 hr by Western blot analysis
Assay [3] shares this target. The following applies: 20 to 200 nM. The source holds these as a separate data set.
Description: Inhibition of ALK in human SU-DHL1 cells assessed as reduction in Akt phosphorylation at S473 residue at 20 to 200 nM after 1 hr by Western blot analysis
Assay [4] has the same target. As to conditions: 20 to 200 nM. The source holds these as a separate data set.
Description: Inhibition of ALK in human SU-DHL1 cells assessed as reduction in ERK phosphorylation at T202//Y204 residues at 20 to 200 nM after 1 hr by Western blot analysis
Assay [5] has the same target. As to conditions: NCI-H3122, 20 to 200 nM.
Description: Inhibition of ALK phosphorylation at Y1278 residue in human NCI-H3122 cells at 20 to 200 nM after 1 hr by Western blot analysis
For assay [6] the target is unchanged. As to conditions: NCI-H3122, 20 to 200 nM. The source holds these as a separate data set.
Description: Inhibition of ALK in human NCI-H3122 cells assessed as reduction in STAT3 phosphorylation at Y705 residue at 20 to 200 nM after 1 hr by Western blot analysis
Assay [7] shares this target. As to conditions: NCI-H3122, 20 to 200 nM. This is another data set of the same source.
Description: Inhibition of ALK in human NCI-H3122 cells assessed as reduction in Akt phosphorylation at S473 residue at 20 to 200 nM after 1 hr by Western blot analysis
Assay [8] shares this target. The following applies: NCI-H3122, 20 to 200 nM. This is another data set of the same source.
Description: Inhibition of ALK in human NCI-H3122 cells assessed as reduction in ERK phosphorylation at T202//Y204 residues at 20 to 200 nM after 1 hr by Western blot analysis
Assay [9] has as its system NCI-H3122. Put plainly: cells. As to conditions: Homo sapiens, NCI-H3122, 72 h.
Description: Antiproliferative activity against human NCI-H3122 cells after 72 hrs by SRB or CCK8 assay
In assay [10] the test system is SU-DHL-1. Description: cells. The following applies: Homo sapiens, SU-DHL-1, 72 h.
Description: Antiproliferative activity against human SU-DHL1 cells harboring NPM-ALK after 72 hrs by SRB or CCK8 assay
Another assay deals with KARPAS-299. Put plainly: cells. The following applies: Homo sapiens, KARPAS-299, 72 h.
Assay [11] has as its system BaF3. Description: cells. The following applies: Mus musculus, BaF3, 72 h.
Description: Antiproliferative activity against mouse BAF3 cells harboring EML4-ALK after 72 hrs by SRB or CCK8 assay
In assay [12] the test system is BaF3. Put plainly: cells. The following applies: Mus musculus, BaF3, 72 h. This is another data set of the same source.
The subject of assay [13] is BaF3. Put plainly: cells. As to conditions: Mus musculus, BaF3, 72 h. This is another data set of the same source.
A further assay concerns HCC78. Put plainly: cells. As to conditions: Homo sapiens, HCC78, 72 h.
Assay [14] concerns BaF3. Put plainly: cells. As to conditions: Mus musculus, BaF3, 72 h. The source holds these as a separate data set.
Description: Antiproliferative activity against mouse BAF3 cells harboring CD74-ROS1 after 72 hrs by SRB or CCK8 assay
The subject of assay [15] is BaF3. Description: cells. The following applies: Mus musculus, BaF3, 72 h. The source holds these as a separate data set.
Description: Antiproliferative activity against mouse BAF3 cells harboring CD74-ROS1 G2032R mutant after 72 hrs by SRB or CCK8 assay
In assay [16] the test system is BaF3. Description: cells. The following applies: Mus musculus, BaF3, 72 h. This is another data set of the same source.
Description: Antiproliferative activity against IL3-stimulated mouse BAF3 cells after 72 hrs by SRB or CCK8 assay
Assay [17] has as its target T1, ALK tyrosine kinase receptor.
For assay [18], the target named is ALK tyrosine kinase receptor (Homo sapiens, UniProt Q9UM73, G1202R).
For assay [19], the target named is ALK tyrosine kinase receptor (Homo sapiens, UniProt Q9UM73, T1151M).
Assay [20] deals with ALK tyrosine kinase receptor (Homo sapiens, UniProt Q9UM73, S1206Y).
For assay [21], the target named is ALK tyrosine kinase receptor (Homo sapiens, UniProt Q9UM73, R1275Q).
Assay [22] addresses ALK tyrosine kinase receptor (Homo sapiens, UniProt Q9UM73, L1152R).
The subject of assay [23] is NCI-H3122. Description: Induction of apoptosis in human NCI-H3122 cells at 20 to 80 nM after 48 hrs by Annexin V-FITC/propidium iodide staining based flow cytometry. It counts as functional, cell-based.
Assay [24] concerns SU-DHL-1. Description: Induction of apoptosis in human SU-DHL1 cells at 20 to 80 nM after 48 hrs by Annexin V-FITC/propidium iodide staining based flow cytometry. It counts as functional, cell-based.

Activity calls are given as the source filed them. No cut-off for these calls is given here.

Description for HCC78: Antiproliferative activity against human HCC78 cells harboring SLC34A2-ROS1 after 72 hrs by SRB or CCK8 assay
Description for KARPAS-299: Antiproliferative activity against human KARPAS299 cells harboring NPM-ALK after 72 hrs by SRB or CCK8 assay

On to `Cc1cc(Nc2ncc(Cl)c(Nc3ccccc3S(=O)(=O)C(C)C)n2)c(OC(C)C)cc1C1CCNCC1` [CERITINIB], for which the inhibition result in [1], in [2], in [3], in [4], in assay [5] and in [6] was “Active” throughout. The inhibition entry in assay [7] and in assay [8] was “Active” in each case. In addition, the IC50 with NCI-H3122 [9] is 96 nM; in the assay on SU-DHL-1 [10], 122 nM; with KARPAS-299 it was 84 nM; with BaF3 [11], 10.7 nM; in the assay on BaF3 [12], 54.9 nM; with BaF3 [13], 726 nM. Besides, the half-maximal inhibitory concentration (IC50) is over 1000 nM in the assay on HCC78, 234 nM in the assay with BaF3 [14], over 1000 nM in the assay on BaF3 [15] and over 1000 nM in the assay with BaF3 [16].
Turning to `COc1ccc(Nc2ncc(Cl)c(Nc3ccccc3S(=O)(=O)C(C)C)n2)cc1NC(=O)CNC(=O)c1cc(C(C)C)c(O)cc1O`, the IC50 was 2.6 nM in [17] and over 1000 nM in the assay with NCI-H3122 [9].
Turning to `COc1ccc(NC(=O)C(NC(=O)c2cc(C(C)C)c(O)cc2O)C(C)C)cc1Nc1ncc(Cl)c(Nc2ccccc2S(=O)(=O)C(C)C)n1` (stereo not given), the IC50 (in assay [17]; in the assay with NCI-H3122 [9]) was over 1000 nM in each case.
For `COc1ccc(NC(=O)CNC(=O)c2cc(C(C)C)c(O)cc2O)cc1Nc1ncc(Cl)c(Nc2ccccc2S(=O)(=O)C(C)C)n1`, the IC50 in [18] amounted to 1.8 nM; in [19], 2.2 nM; in assay [20], 5.1 nM; in assay [21], 2.7 nM; in [22], 10.6 nM; in assay [17], 1.7 nM. Also, the half-maximal inhibitory concentration (IC50) is 6.9 nM in the assay with NCI-H3122 [9]; 4.8 nM in the assay with SU-DHL-1 [10]; 10.4 nM with KARPAS-299; under 1.5 nM with BaF3 [11]; under 1.5 nM in the assay with BaF3 [12]; under 1.5 nM in the assay with BaF3 [13]. The IC50 with HCC78 is under 1.5 nM; with BaF3 [14], 0.2 nM; with BaF3 [15], 0.2 nM; in the assay with BaF3 [16], over 1000 nM. In addition, the result in the assay on NCI-H3122 [23] and in the assay on SU-DHL-1 [24] was Active.
In the case of `COc1ccc(NC(=O)C(Cc2ccccc2)NC(=O)c2cc(C(C)C)c(O)cc2O)cc1Nc1ncc(Cl)c(Nc2ccccc2S(=O)(=O)C(C)C)n1` (stereo not given), the IC50 in assay [18] worked out at 65 nM; in [17] it was 7.8 nM; in the assay with NCI-H3122 [9], 57 nM.
`CC(C)c1cc(C(=O)NCC(=O)Nc2ccc(F)c(Nc3ncc(Cl)c(Nc4ccccc4S(=O)(=O)C(C)C)n3)c2)c(O)cc1O`: the IC50 in assay [18] was determined as 15.5 nM; in [17] it was 1 nM; in the assay on NCI-H3122 [9], 7.2 nM.
Take `CC(C)c1cc(C(=O)NCC(=O)Nc2cccc(Nc3ncc(Cl)c(Nc4ccccc4S(=O)(=O)C(C)C)n3)c2)c(O)cc1O`: the IC50 in assay [17] was 0.8 nM; with NCI-H3122 [9], 84 nM.
As for `C[C@H]1Oc2cc(cnc2N)-c2c(nn(C)c2C#N)CN(C)C(=O)c2ccc(F)cc21` [LORLATINIB], the IC50 in the assay on NCI-H3122 [9] came to 7.8 nM; in the assay on SU-DHL-1 [10], 4.9 nM; in the assay with KARPAS-299, 3 nM; with BaF3 [11] it was 2.9 nM; in the assay with BaF3 [12], 42.4 nM; in the assay on BaF3 [13], 200 nM. The IC50 in the assay with HCC78 is 357 nM; in the assay on BaF3 [14], 1.2 nM; in the assay with BaF3 [15] it was 262 nM; in the assay with BaF3 [16] it was over 1000 nM.
Take `COc1ccc(NC(=O)CNC(=O)c2cc(C(C)C)c(O)cc2OC)cc1Nc1ncc(Cl)c(Nc2ccccc2S(=O)(=O)C(C)C)n1`: the IC50 in [17] came out at 48 nM; in the assay with NCI-H3122 [9], 12.8 nM.
`COc1ccc(NC(=O)C2(NC(=O)c3cc(C(C)C)c(O)cc3O)CC2)cc1Nc1ncc(Cl)c(Nc2ccccc2S(=O)(=O)C(C)C)n1`: the values for the IC50 (in assay [17]; in the assay on NCI-H3122 [9]) were 130 nM and 254 nM, respectively.
On to `COc1ccc(NC(=O)CNC(=O)c2cc(C(C)C)ccc2O)cc1Nc1ncc(Cl)c(Nc2ccccc2S(=O)(=O)C(C)C)n1`, for which the IC50 in [18] stood at 15.3 nM; in [17], 0.7 nM; with NCI-H3122 [9] it was 4 nM.
`CC(C)Oc1ccc(NC(=O)CNC(=O)c2cc(C(C)C)c(O)cc2O)cc1Nc1nccc(Nc2ccccc2S(=O)(=O)C(C)C)n1`: the results for the IC50 (in assay [17]; with NCI-H3122 [9]) were 4.2 nM and 123 nM, respectively.
As to `CC(C)Oc1ccc(NC(=O)CNC(=O)c2cc(C(C)C)c(O)cc2O)cc1Nc1ncc(Cl)c(Nc2ccccc2S(=O)(=O)C(C)C)n1`, the IC50 in [17] came out at 3.3 nM; in the assay with NCI-H3122 [9], 69 nM.
For the compound `COc1ccc(NC(=O)C(C)NC(=O)c2cc(C(C)C)c(O)cc2O)cc1Nc1ncc(Cl)c(Nc2ccccc2S(=O)(=O)C(C)C)n1` (stereo not given), the IC50 in assay [17] was found to be 0.7 nM; in the assay on NCI-H3122 [9], 6.8 nM.
On to `COc1ccc(NC(=O)CNC(=O)c2cc(C(C)C)c(OC)cc2O)cc1Nc1ncc(Cl)c(Nc2ccccc2S(=O)(=O)C(C)C)n1`, for which the IC50 worked out at 10.5 nM in assay [17] and 13.7 nM in the assay with NCI-H3122 [9].
For `COc1cc(OC)c(C(C)C)cc1C(=O)NCC(=O)Nc1cccc(Nc2ncc(Cl)c(Nc3ccccc3S(=O)(=O)C(C)C)n2)c1`, in that order: over 1000 nM and over 1000 nM.
As for `COc1ccc(NC(=O)CNC(=O)c2cc(C(C)C)c(O)cc2O)cc1Nc1ncc(Cl)c(Nc2ccccc2P(C)(C)=O)n1`, the results for the half-inhibitory concentration (IC50) (in assay [18]; in assay [17]; in the assay on NCI-H3122 [9]) were 7.8 nM, 1.5 nM and 99 nM, respectively.
As for `COc1ccc(NC(=O)CNC(=O)c2cc(C(C)C)c(O)cc2O)cc1Nc1ncnc(Nc2ccccc2S(=O)(=O)C(C)C)n1`, the IC50 in [17] worked out at 1.3 nM; in the assay with NCI-H3122 [9], 64 nM.
With `CC(C)c1cc(C(=O)NCC(=O)Nc2cccc(Nc3ncc(Cl)c(Nc4cc(S(=O)(=O)C(C)C)nn4C)n3)c2)c(O)cc1O`, the results for the IC50 (in [17]; in the assay on NCI-H3122 [9]) were 262 nM and over 1000 nM, respectively.
Regarding `COc1ccc(NC(=O)CNC(=O)c2ccc(O)c(C(C)C)c2)cc1Nc1ncc(Cl)c(Nc2ccccc2S(=O)(=O)C(C)C)n1`, the results for the 50% inhibitory concentration (IC50) (in [18]; in [17]; in the assay with NCI-H3122 [9]) were 6.1 nM, 1.4 nM and 9.1 nM, respectively.
